Experimental findings from patent US9951077B2, “Aminopyridazinone compounds as protein kinase inhibitors” (ETERNITY BIOSCIENCE INC., priority 2014, dated 2018) are described below.

pIC50: −log10 of the molar value.

Chain of Btk (Q06187 whole entry): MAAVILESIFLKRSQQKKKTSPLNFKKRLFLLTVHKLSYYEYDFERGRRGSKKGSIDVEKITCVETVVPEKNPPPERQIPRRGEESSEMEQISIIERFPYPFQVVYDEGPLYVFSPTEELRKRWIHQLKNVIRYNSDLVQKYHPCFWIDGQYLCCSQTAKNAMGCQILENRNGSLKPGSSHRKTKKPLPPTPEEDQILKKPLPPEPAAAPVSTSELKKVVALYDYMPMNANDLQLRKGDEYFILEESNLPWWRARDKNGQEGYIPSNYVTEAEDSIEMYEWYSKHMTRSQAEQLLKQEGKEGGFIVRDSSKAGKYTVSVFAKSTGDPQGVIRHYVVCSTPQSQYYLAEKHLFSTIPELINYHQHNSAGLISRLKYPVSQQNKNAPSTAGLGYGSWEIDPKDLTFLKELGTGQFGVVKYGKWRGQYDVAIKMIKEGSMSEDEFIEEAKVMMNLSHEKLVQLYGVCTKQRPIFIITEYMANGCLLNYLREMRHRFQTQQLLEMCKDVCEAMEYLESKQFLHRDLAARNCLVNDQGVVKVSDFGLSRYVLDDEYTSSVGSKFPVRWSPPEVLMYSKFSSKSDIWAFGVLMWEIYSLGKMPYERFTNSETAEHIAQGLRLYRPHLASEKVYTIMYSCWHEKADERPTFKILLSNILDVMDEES

The target of this assay is Btk (Homo sapiens (Human), UniProt Q06187). Briefly: Btk kinase assay (ADP-Glo). It counts as biochemical. Particulars: ATP 1.2 μM, 60 minutes, room temperature; read-out: BTK enzyme IC50. The protocol:
The Btk kinase assay was performed using a ADP-Glo Btk kinase assay kit purchased from Promega (Madison, Wis.). The assay was conducted according to the protocols provided in the assay kit. In brief, the enzyme reaction was carried out in the kinase reaction buffer containing Btk (2 ng/μl), ATP (1.2 μM), poly GT peptide (0.3 μM), DTT (40 nM), MnCl2 (1.4 mM), and 1×kinase buffer (included in the kit) in the presence or absence of the tested articles at various concentrations in 384-well plate at room temperature (22±1° C.) for 60 minutes. The final reaction volume for each reaction was 10 μl. Then, 4 μl of ADP-Glo reagent (included in the kit) was added into the reaction and the plate was further incubated for another 40 minutes to terminate the reaction and deplete the remaining ATP. Finally, 10 μl of the kinase detection reagent was added into each reaction to simultaneously convert ADP to ATP and allow the newly synthesized ATP to be measured by a plate-reading luminometer (Victor X5 2030 multilabel reader, PerkinElmer). IC50 value was calculated using appropriate programs in GraphPad Prism by plotting the logarithm of the concentration versus percent inhibition as compared with a vehicle (DMSO) control.
Background: ADP-Glo first removes unused ATP, then detects ADP through luciferase.
The term pIC50 denotes −log10 of the IC50, conventionally taken in molar units. Take `C=CC(=O)N1CCC[C@@H](n2cc(-c3ccc(Oc4ccccc4)cc3)c3c(N)n[nH]c(=O)c32)C1` [Example 1, (R)-1-(1-acryloylpiperidin-3-yl)-4-amino-3-(4-phenoxyphenyl)-1H-pyrrolo[2,3-d]pyridazin-7(6H)-one]: the pIC50 was not below 8.00.

As to `C=CC(=O)N1CC[C@H](n2cc(-c3ccc(Oc4ccccc4)cc3)c3c(N)n[nH]c(=O)c32)C1` [Example 3, 4-amino-3-(4-phenoxyphenyl)-1-[(3S)-1-prop-2-enoylpyrrolidin-3-yl]-6H-pyrrolo[2,3-d]pyridazin-7-one], the pIC50 was 6.00 to 8.00.

With `C=CC(=O)N1CC[C@@H](n2cc(-c3ccc(Oc4ccccc4)cc3)c3c(N)n[nH]c(=O)c32)C1` [Example 4, 4-amino-3-(4-phenoxyphenyl)-1-[(3R)-1-prop-2-enoylpyrrolidin-3-yl]-6H-pyrrolo[2,3-d]pyridazin-7-one], the pIC50 was 6.00 to 8.00.

As for `C=CC(=O)N1CC(n2cc(-c3ccc(Oc4ccccc4)cc3)c3c(N)n[nH]c(=O)c32)C1` [Example 5, 4-amino-3-(4-phenoxyphenyl)-1-(1-prop-2-enoylazetidin-3-yl)-6H-pyrrolo[2,3-d]pyridazin-7-one], the pIC50 is 6.00 to 8.00.

Consider `C=CC(=O)N1CCC[C@H]1Cn1cc(-c2ccc(Oc3ccccc3)cc2)c2c(N)n[nH]c(=O)c21` [Example 6, 4-amino-3-(4-phenoxyphenyl)-1-[[(2S)-1-prop-2-enoylpyrrolidin-2-yl]methyl]-6H-pyrrolo[2,3-d]pyridazin-7-one], for which the pIC50 was 6.00 to 8.00.

Consider `C=CC(=O)N1CCC[C@@H]1Cn1cc(-c2ccc(Oc3ccccc3)cc2)c2c(N)n[nH]c(=O)c21` [Example 7, 4-amino-3-(4-phenoxyphenyl)-1-[[(2R)-1-prop-2-enoylpyrrolidin-2-yl]methyl]-6H-pyrrolo[2,3-d]pyridazin-7-one], for which the pIC50 was 4.00 to 6.00.

In the case of `C=CC(=O)N1CCC(Cn2cc(-c3ccc(Oc4ccccc4)cc3)c3c(N)n[nH]c(=O)c32)C1` (stereo not shown) [Example 8, 4-amino-3-(4-phenoxyphenyl)-1-[(1-prop-2-enoylpyrrolidin-3-yl)methyl]-6H-pyrrolo[2,3-d]pyridazin-7-one], the pIC50 was 6.00 to 8.00.

Consider `C=CC(=O)N1CCC(n2cc(-c3ccc(Oc4ccccc4)cc3)c3c(N)n[nH]c(=O)c32)CC1` [Example 9, 4-amino-3-(4-phenoxyphenyl)-1-(1-prop-2-enoyl-4-piperidyl)-6H-pyrrolo[2,3-d]pyridazin-7-one], for which the pIC50 was 4.00 to 6.00.

As for `C=CC(=O)N1CCC(Cn2cc(-c3ccc(Oc4ccccc4)cc3)c3c(N)n[nH]c(=O)c32)CC1` [Example 10, 4-amino-3-(4-phenoxyphenyl)-1-[(1-prop-2-enoyl-4-piperidyl)methyl]-6H-pyrrolo[2,3-d]pyridazin-7-one], the pIC50 was 6.00 to 8.00.

As to `C=CC(=O)N1CC(Cn2cc(-c3ccc(Oc4ccccc4)cc3)c3c(N)n[nH]c(=O)c32)C1` [Example 12, 4-amino-3-(4-phenoxyphenyl)-1-[(1-prop-2-enoylazetidin-3-yl)methyl]-6H-pyrrolo[2,3-d]pyridazin-7-one], the pIC50 is 6.00 to 8.00.

In the case of `C=CC(=O)N1CCC(F)C(n2cc(-c3ccc(Oc4ccccc4)cc3)c3c(N)n[nH]c(=O)c32)C1` (stereo not shown) [Example 13, 1-(1-acryloyl-4-fluoropiperidin-3-yl)-4-amino-3-(4-phenoxyphenyl)-1H-pyrrolo[2,3-d]pyridazin-7(6H)-one], the pIC50 was not below 8.00.

In the case of `C=CC(=O)N1C[C@H](n2cc(-c3ccc(Oc4ccccc4)cc3)c3c(N)n[nH]c(=O)c32)CC(F)(F)C1` [Example 14, (R)-1-(1-acryloyl-5,5-difluoropiperidin-3-yl)-4-amino-3-(4-phenoxyphenyl)-1H-pyrrolo[2,3-d]pyridazin-7(6H)-one], the pIC50 is not below 8.00.

`C=CC(=O)NC1C2CCC1CC(n1cc(-c3ccc(Oc4ccccc4)cc3)c3c(N)n[nH]c(=O)c31)C2` (stereo not shown) [Example 15, N-(3-(4-amino-7-oxo-3-(4-phenoxyphenyl)-6,7-dihydro-1H-pyrrolo[2,3-d]pyridazin-1-yl)bicyclo[3.2.1]octan-8-yl)acrylamide]: the negative-log IC50 (pIC50) is 6.00 to 8.00.

Take `CC(C)N(C)C/C=C/C(=O)N1CCC[C@@H](n2cc(-c3ccc(Oc4ccccc4)cc3)c3c(N)n[nH]c(=O)c32)C1` [Example 16, 4-amino-1-[(3R)-1-[(E)-4-[isopropyl(methyl)amino]but-2-enoyl]-3-piperidyl]-3-(4-phenoxyphenyl)-6H-pyrrolo[2,3-d]pyridazin-7-one]: the pIC50 is not below 8.00.

`CN(C/C=C/C(=O)N1CCC[C@@H](n2cc(-c3ccc(Oc4ccccc4)cc3)c3c(N)n[nH]c(=O)c32)C1)C(=O)OC(C)(C)C` [Example 17, tert-butyl N-[(E)-4-[(3R)-3-[4-amino-7-oxo-3-(4-phenoxyphenyl)-6H-pyrrolo[2,3-d]pyridazin-1-yl]-1-piperidyl]-4-oxo-but-2-enyl]-N-methyl-carbamate]: the negative-log IC50 (pIC50) is 6.00 to 8.00.

As for `CNC/C=C/C(=O)N1CCC[C@@H](n2cc(-c3ccc(Oc4ccccc4)cc3)c3c(N)n[nH]c(=O)c32)C1` [Example 18, 4-amino-1-[(3R)-1-[(E)-4-(methylamino)but-2-enoyl]-3-piperidyl]-3-(4-phenoxyphenyl)-6H-pyrrolo[2,3-d]pyridazin-7-one], the pIC50 is not below 8.00.

On to `CCC(=O)N1CCCC(n2cc(-c3ccc(Oc4ccccc4)cc3)c3c(N)n[nH]c(=O)c32)C1` (stereo not shown) [Example 19, 4-amino-3-(4-phenoxyphenyl)-1-(1-propionylpiperidin-3-yl)-1H-pyrrolo[2,3-d]pyridazin-7(6H)-one], for which the pIC50 was 6.00 to 8.00.

Turning to `N#CN1CCC[C@@H](n2cc(-c3ccc(Oc4ccccc4)cc3)c3c(N)n[nH]c(=O)c32)C1` [Example 20, (R)-3-(4-amino-7-oxo-3-(4-phenoxyphenyl)-6,7-dihydro-1H-pyrrolo[2,3-d]pyridazin-1-yl)piperidine-1-carbonitrile], the pIC50 is 6.00 to 8.00.

As to `CC#CC(=O)N1CCCC(n2cc(-c3ccc(Oc4ccccc4)cc3)c3c(N)n[nH]c(=O)c32)C1` (stereo not shown) [Example 21, 4-amino-1-(1-(but-2-ynoyl)piperidin-3-yl)-3-(4-phenoxyphenyl)-1H-pyrrolo[2,3-d]pyridazin-7(6H)-one], the pIC50 was 4.00 to 6.00.

As to `Nc1n[nH]c(=O)c2c1c(-c1ccc(Oc3ccccc3)cc1)cn2[C@@H]1CCCN(C(=O)CCl)C1` [Example 22, 4-amino-1-[(3R)-1-(2-chloroacetyl)-3-piperidyl]-3-(4-phenoxyphenyl)-6H-pyrrolo[2,3-d]pyridazin-7-one], the pIC50 is 6.00 to 8.00.

For `Nc1n[nH]c(=O)c2c1c(-c1ccc(Oc3ccccc3)cc1)cn2[C@@H]1CCCN(C(=O)C2CC2)C1` [Example 23, 4-amino-1-[(3R)-1-(cyclopropanecarbonyl)-3-piperidyl]-3-(4-phenoxyphenyl)-6H-pyrrolo[2,3-d]pyridazin-7-one], the pIC50 was 6.00 to 8.00.

Consider `N#CCC(=O)N1CCC[C@@H](n2cc(-c3ccc(Oc4ccccc4)cc3)c3c(N)n[nH]c(=O)c32)C1` [Example 24, 3-[(3R)-3-[4-amino-7-oxo-3-(4-phenoxyphenyl)-6H-pyrrolo[2,3-d]pyridazin-1-yl]-1-piperidyl]-3-oxo-propanenitrile], for which the pIC50 is 6.00 to 8.00.

Consider `C/C=C/C(=O)N1CCC[C@@H](n2cc(-c3ccc(Oc4ccccc4)cc3)c3c(N)n[nH]c(=O)c32)C1` [Example 25, 4-amino-1-[(3R)-1-[(E)-but-2-enoyl]-3-piperidyl]-3-(4-phenoxyphenyl)-6H-pyrrolo[2,3-d]pyridazin-7-one], for which the pIC50 is 6.00 to 8.00.

`CN(C)C/C=C/C(=O)N1CCC[C@@H](n2cc(-c3ccc(Oc4ccccc4)cc3)c3c(N)n[nH]c(=O)c32)C1` [Example 26, 4-amino-1-[(3R)-1-[(E)-4-(dimethylamino)but-2-enoyl]-3-piperidyl]-3-(4-phenoxyphenyl)-6H-pyrrolo[2,3-d]pyridazin-7-one]: the pIC50 is not below 8.00.

Turning to `CCN(CC)C/C=C/C(=O)N1CCC[C@@H](n2cc(-c3ccc(Oc4ccccc4)cc3)c3c(N)n[nH]c(=O)c32)C1` [Example 27, 4-amino-1-[(3R)-1-[(E)-4-(diethylamino)but-2-enoyl]-3-piperidyl]-3-(4-phenoxyphenyl)-6H-pyrrolo[2,3-d]pyridazin-7-one], the pIC50 was not below 8.00.

As for `Nc1n[nH]c(=O)c2c1c(-c1ccc(Oc3ccccc3)cc1)cn2[C@@H]1CCCN(C(=O)/C=C/CNC2CC2)C1` [Example 28, 4-amino-1-[(3R)-1-[(E)-4-(cyclopropylamino)but-2-enoyl]-3-piperidyl]-3-(4-phenoxyphenyl)-6H-pyrrolo[2,3-d]pyridazin-7-one], the pIC50 is not below 8.00.

Take `CN(C/C=C/C(=O)N1CCC[C@@H](n2cc(-c3ccc(Oc4ccccc4)cc3)c3c(N)n[nH]c(=O)c32)C1)C1CC1` [Example 29, 4-amino-1-[(3R)-1-[(E)-4-(cyclopropyl(methyl)amino)but-2-enoyl]-3-piperidyl]-3-(4-phenoxyphenyl)-6H-pyrrolo[2,3-d]pyridazin-7-one]: the pIC50 was 6.00 to 8.00.

On to `CCN(C/C=C/C(=O)N1CCC[C@@H](n2cc(-c3ccc(Oc4ccccc4)cc3)c3c(N)n[nH]c(=O)c32)C1)C1CC1` [Example 30, 4-amino-1-[(3R)-1-[(E)-4-[cyclopropyl(ethyl)amino]but-2-enoyl]-3-piperidyl]-3-(4-phenoxyphenyl)-6H-pyrrolo[2,3-d]pyridazin-7-one], for which the pIC50 was 6.00 to 8.00.
